Measured values taken from ChEMBL document CHEMBL1159331, “Cytotoxic prenylated xanthones and the unusual compounds anthraquinobenzophenones from Cratoxylum sumatranum” (J Nat Prod, 2002).
Converted amounts (≈) assume the structure as drawn. The source made the active and inactive calls. The rule behind the calls is not given here.

Experiments:
[1] = system: KB; assay: Cytotoxicity against human KB cells by MTT assay; type: functional, cell-based
[2] = system: P388; assay: In vivo antitumor activity against mouse P388 cells at 75 mg/kg, ip; type: functional, organism-based; design: dose 75 mg/kg

SMILES	Activity [1]	Activity [2]	EC50 [1] [µg/mL]
COc1cc2c(c(O)c1C(CC(C)CCC=C(C)C)c1c(OC/C=C(\C)CCC=C(C)C)cc(O)c(C(=O)c3ccccc3)c1O)C(=O)c1c(O)cc(C)cc1C2=O (stereo not given)	inactive	–	–
COc1cc(OC)c2oc3cc(O)c(CC=C(C)C)c(O)c3c(=O)c2c1CC=C(C)C [CRATOXYARBORENONE C]	–	inactive	1.5 (≈ 3.53 µM)
CC(C)=CCc1c(O)cc2oc3c(O)cc(O)c(CC=C(C)C)c3c(=O)c2c1O [CRATOXYARBORENONE B]	–	–	1 (≈ 2.52 µM)
CC(C)=CCC/C(C)=C/Cc1c(O)cc(O)c2oc3cc(O)c(CC=C(C)C)c(O)c3c(=O)c12 [CRATOXYARBORENONE A]	–	–	4.3 (≈ 9.26 µM)
COc1cc2c(c(O)c1C(CC(C)C)c1c(OC/C=C(\C)CCC=C(C)C)cc(O)c(C(=O)c3ccccc3)c1O)C(=O)c1c(O)cc(C)cc1C2=O (stereo not given)	inactive	–	–
COc1cc2cc3c(c(O)c2c2c1C=CC(C)(C)O2)C(=O)CC(C)(O)C3 (stereo not given) [VISMIONE B]	–	–	1.3 (≈ 3.67 µM)
COc1ccc(O)c2c(=O)c3ccc(O)cc3oc12 [CRATOXYARBORENONE F]	–	–	4.1 (≈ 15.9 µM)
C=C(C)C1Cc2c(cc3oc4c(O)c(O)c(O)c(CC=C(C)C)c4c(=O)c3c2O)O1 (stereo not given) [CRATOXYARBORENONE D]	–	–	1.7 (≈ 4.14 µM)
COc1c(O)cc2c(=O)c3c(O)cc(O)c(CC=C(C)C)c3oc2c1CC=C(C)C [CRATOXYARBORENONE E]	–	–	4.3 (≈ 10.5 µM)
